EC50 data for two molecules are collected here from PubChem BioAssay AID602128 (The Scripps Research Institute Molecular Screening Center, 2011).

As a reminder, the EC50 is the concentration at which the effect is half-maximal.

For this assay, the target named is Mucolipin-3 (Homo sapiens) (UniProt Q8TDD5). The assay is described as follows: human mucolipin-3 activators, concentration-response – cell-based, HEK293, calcium fluorescence, analogs, round 2, SAR follow-up (AID 602128). The following applies: HEK293 TRPML3 cells.
Chain of Mucolipin-3 (Homo sapiens) (Q8TDD5 whole entry, looked up): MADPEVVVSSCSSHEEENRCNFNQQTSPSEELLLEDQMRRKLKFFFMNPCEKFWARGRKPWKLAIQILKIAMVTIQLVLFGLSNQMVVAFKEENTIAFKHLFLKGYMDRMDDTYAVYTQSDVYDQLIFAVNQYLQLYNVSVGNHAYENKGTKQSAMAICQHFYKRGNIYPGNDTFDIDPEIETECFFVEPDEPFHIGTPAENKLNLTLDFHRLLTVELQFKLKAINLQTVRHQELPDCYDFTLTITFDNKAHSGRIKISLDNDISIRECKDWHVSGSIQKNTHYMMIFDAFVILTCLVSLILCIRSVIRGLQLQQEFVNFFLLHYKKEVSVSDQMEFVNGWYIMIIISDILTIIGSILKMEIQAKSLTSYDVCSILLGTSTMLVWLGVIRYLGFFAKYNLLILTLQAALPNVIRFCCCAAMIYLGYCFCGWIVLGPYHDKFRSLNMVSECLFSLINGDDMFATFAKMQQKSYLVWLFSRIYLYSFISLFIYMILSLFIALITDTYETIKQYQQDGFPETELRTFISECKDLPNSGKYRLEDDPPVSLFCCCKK

Active and inactive are the calls of the source. The rule behind the calls is not given here.

For the molecule `Cc1ccc(S(=O)(=O)n2ccc(-c3c(-c4ccc(Cl)cc4)noc3C)n2)cc1`, the EC50 is 291 nM. To `Cc1ccc(S(=O)(=O)n2nccc2-c2c(-c3ccc(Cl)cc3)noc2C)cc1` belongs > 29900 nM (inactive).
